Legend:
[1] = approximate acute toxicity (LD50) in the mouse, per os; details: in vivo, po, single administration of increasing doses, measured on the seventh day
Method: For example, the approximate acute toxicity (LD50) in the mouse of the compounds 2-cyano-3-(1,4-dihydro-1-phenyl-[1]-benzopyrano[4,3-c]pyrazol-3-yl)-3-oxo- N-phenyl-propanamide, and 2-cyano-3-(1,4-dihydro-1-phenyl-[1]-benzothiopyrano[4,3-c]pyrazol-3-yl)-3- oxo-N-phenyl-propanamide, determined per os with single administration of increasing doses and measured on the seventh day after the day of treatment, is higher than 800 mg/kg. Analogous toxicity data have been found for the other compounds of the invention.

P. aeruginosa = assay: Activity on P. aeruginosa infection in immunosuppressed mice; assay type: in vivo; details: cyclophosphamide immunosuppressed; for % mortality 1 × LD50: P. aeruginosa 1 × LD50 i.v., controls 80; for % mortality 2 × LD50: P. aeruginosa 2 × LD50 i.v., controls 90
Method: (§1) The compound of the present invention 2-cyano-3-(1,4-dihydro-1-phenyl-[1]-benzothiopyrano[4,3-c]pyrazol-3-yl)-3- oxo-N-phenyl-propanamide (internal code FCE 24578), for instance, was tested, according to the procedure described by Cleeland R., Grunberg E. 1986, 825-876, "Antibiotics in Laboratory Medicine" Lorian V. Editor (Williams and Wilkins), in the following models of infection: L. monocytogenes; D. pneumoniae; S. flexneri and P. aeruginosa; the last one being performed in cyclophosphamide immunosuppressed mice, according to Cryz S. J., Furer E., Germanier R., 1983, Infect. Imm., 39, 1067-1071.
Activity of FCE 24578 on P. aeruginosa infection
in immunosuppressed mice
Cyclophosphamide (200 mg/kg) was administered i.p. on the fourth day
The treatments with FCE 24578 or vehicle were performed on -3, -2, -1 and
0 day before the infection (2 × LD50 and 1 × LD50)

L. monocytogenes = assay: Activity on L. monocytogenes infection in mice; assay type: in vivo; details: L. monocytogenes 1 × LD50 i.v., controls 75
Method: as §1
Activity of FCE 24578 on L. monocytogenes infection
Treatments with FCE 2457B or vehicle were performed on -3, -2, -1 and 0
day before the infection (1 × LD50) given i.v.

S. flexneri = assay: Activity on S. flexneri infection in mice; assay type: in vivo; details: infection 3 × LD50 i.p., controls 100
Method: as §1
(§2) Activity of FCE 24578 on S. flexneri and D. pneumoniae
(§3) Infection (3 × LD50) was given i.p.
(§4) Treatments with FCE 24578 or vehicle were performed on -3, -2, -1 and 0

D. pneumoniae = assay: Activity on D. pneumoniae infection in mice; assay type: in vivo; details: infection 3 × LD50 i.p.
Method: as §1, §2, §3, §4
MST = Mean Survival Time.
*= significant for p < 0.01.

N#CC(C(=O)Nc1ccccc1)C(=O)c1nn(-c2ccccc2)c2c1COc1ccccc1-2 (centres unmarked) [FCE 25158, 2-cyano-3-(1,4-dihydro-1-phenyl-[1]-benzopyrano[4,3-c]pyrazol-3-yl)-3-oxo-N-phenyl-propanamide]
LD50 at 168 h [1]: > 800 mg/kg

N#CC(C(=O)Nc1ccccc1)C(=O)c1nn(-c2ccccc2)c2c1CSc1ccccc1-2 (centres unmarked) [FCE 24578, 2-cyano-3-(1,4-dihydro-1-phenyl-[1]-benzothiopyrano[4,3-c]pyrazol-3-yl)-3-oxo-N-phenyl-propanamide]
% mortality 1 × LD50 (P. aeruginosa; 10 mg/kg i.p.): 0%
% mortality 1 × LD50 (P. aeruginosa; 50 mg/kg i.p.): 0%
% mortality 2 × LD50 (P. aeruginosa; 10 mg/kg i.p.): 0%
% mortality 2 × LD50 (P. aeruginosa; 50 mg/kg i.p.): 0%
LD50 at 168 h [1]: > 800 mg/kg
% mortality 1 × LD50 (L. monocytogenes; 10 mg/kg i.p.): 12.5%
% mortality 1 × LD50 (L. monocytogenes; 50 mg/kg i.p.): 0%
% mortality 1 × LD50 (L. monocytogenes; 50 mg/kg p.o.): 37.5%
% mortality 1 × LD50 (L. monocytogenes; 250 mg/kg p.o.): 25%
% mortality (S. flexneri; 10 mg/kg i.p. on -3, -2, -1 and 0 day before infection): 40%
% mortality (S. flexneri; 50 mg/kg i.p. on -3, -2, -1 and 0 day before infection): 10%
MST (Mean Survival Time) (D. pneumoniae; 10 mg/kg i.p. on -3, -2, -1 and 0 day before infection, controls 3.1): 4 days
MST (Mean Survival Time) (D. pneumoniae; 50 mg/kg i.p. on -3, -2, -1 and 0 day before infection, controls 3.1, * = significant for p < 0.01): 5.7 days
